Data: patent US10959986B2, “Inhibitors of indoleamine 2,3-dioxygenase and methods of their use” (BRISTOL-MYERS SQUIBB COMPANY, priority 2018, dated 2021)

Key:
human IDO1 = target: T1, human IDO1 (Homo sapiens, UniProt P14902); experiment: HEK293 cell-based indoleamine 2,3-dioxygenase (IDO) assay; settings: HEK293 cells stably expressing human IDO1, 20 hours incubation; read-out: IDO1 HEK Human IC50
T1 construct: expressed in transfected cells
Procedure: Assessment of Inhibitor Activity in HEK293 Cell-Based Indoleamine 2,3-Dioxygenase (IDO) Assay.
HEK293 cells were transfected with a pCDNA-based mammalian expression vector harboring human IDO1 cDNA (NM 002164.2) by electroporation. They were cultured in medium (DMEM with 10% FBS) containing 1 mg/ml G418 for two weeks. Clones of HEK293 cells that stably expressed human IDO1 protein were selected and expanded for IDO inhibition assay.
The human IDO1/HEK293 cells were seeded at 10,000 cells per 50 μL per well with RPMI/phenol red free media contains 10% FBS in a 384-well black wall clear bottom tissue culture plate (Matrix Technologies LLC) 100 nL of certain concentration of compound was then added to each well using ECHO liquid handling systems. The cells were incubated for 20 hours in 37° C. incubator with 5% CO2.
The compound treatments were stopped by adding trichloroacetic acid (Sigma-Aldrich) to a final concentration at 0.2%. The cell plate was further incubated at 50° C. for 30 minute. The equal volume supernatant (20 μL) and 0.2% (w/v) Ehrlich reagent (4-dimethylaminobenzaldehyde, Sigma-Aldrich) in glacial acetic acid were mixed in a new clear bottom 384-well plate. This plate was then incubated at room temperature for 30 minute. The absorbance at 490 nm was measured on Envision plate reader.
Compound IC50 values were calculated using the counts of 500 nM of a reference standard treatment as one hundred percent inhibition, and counts of no compound but DMSO treatment as zero percent inhibition.

[1] = target: T2, indoleamine 2,3-dioxygenase (IDO) (Homo sapiens, UniProt P14902); experiment: HeLa cell-based indoleamine 2,3-dioxygenase (IDO) assay; settings: HeLa cells with IFNγ 25 ng/mL, 48 hour incubation, kynurenine production; read-out: IDO Hela IC50 potency class (A < 50, B < 250, C < 2000)
T2 construct: media containing IFNγ (#285-IF/CF, R&D Systems) at a final concentration of 25 ng/mL; endogenous in cells; host or cells: HeLa (ATCC CCL-2), induced with IFN-gamma
Procedure: Assessment of Inhibitor Activity in HeLa Cell-Based Indoleamine 2,3-Dioxygenase (IDO) Assay.
HeLa (ATCCR CCL-2) cells were obtained from the ATCC® and cultured in Dulbecco's Modified Eagle Medium supplemented with 4.5 g/L glucose, […] L-glutamine and […] (#10-013-CV, Corning), 2 mM L-alanyl-L-glutamine dipeptide (#35050-061, Gibco), 100U/mL penicillin, 100 µg/mL streptomycin (#SV30010, HyClone) and 10% fetal bovine serum (#SH30071.03 HyClone). Cells were maintained in a humidified incubator at 37° C. in 5% CO2.
IDO activity was assessed as a function of kynurenine production as follows: HeLa cells were seeded in a 96-well culture plate at a density of 5,000 cells/well and allowed to equilibrate overnight. After 24 hours, the media was aspirated and replaced with media containing IFNγ (#285-IF/CF, R&D Systems) at a final concentration of 25 ng/mL. A serial dilution of each test compound was added to the cells in a total volume of 200 μL of culture medium. After a further 48 hour incubation, 170 μL of supernatant was transferred from each well to a fresh 96-well plate. 12.1 μL of 6. IN trichloroacetic acid (#T0699, Sigma-Aldrich) was added to each well and mixed, followed by incubation at 65° C. for 20 minutes to hydrolyze N-formylkynurenine, the product of indoleamine 2,3-dioxygenase, to kynurenine. The reaction mixture was then centrifuged for 10 mins at 500×g to sediment the precipitate. 100 μL of the supernatant was transferred from each well to a fresh 96-well plate. 100 μl of 2% (w/v) p-dimethylaminobenzaldehyde (#15647-7, Sigma-Aldrich) in acetic acid (#A6283, Sigma-Aldrich) was added to each well mixed and incubated at room temperature for 20 mins. Kynurenine concentrations were determined by measuring absorbance at 480 nm and calibrating against an L-kynurenine (#K8625, Sigma-Aldrich) standard curve using a SPECTRAMAX® M2e microplate reader (Molecular Devices). The percentage activity at each inhibitor concentration was determined and IC50 values assessed using nonlinear regression.

T2 sequence (P14902 whole entry): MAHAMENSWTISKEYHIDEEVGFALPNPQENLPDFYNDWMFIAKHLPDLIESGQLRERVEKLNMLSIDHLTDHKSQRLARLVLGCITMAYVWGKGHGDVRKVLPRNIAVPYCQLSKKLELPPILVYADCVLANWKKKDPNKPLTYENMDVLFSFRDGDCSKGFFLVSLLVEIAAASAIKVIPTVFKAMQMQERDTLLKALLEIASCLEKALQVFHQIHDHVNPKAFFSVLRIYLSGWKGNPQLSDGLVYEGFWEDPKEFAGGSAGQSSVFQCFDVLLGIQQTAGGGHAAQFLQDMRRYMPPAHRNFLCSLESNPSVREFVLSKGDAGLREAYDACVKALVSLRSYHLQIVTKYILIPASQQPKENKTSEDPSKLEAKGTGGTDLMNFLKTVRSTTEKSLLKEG
T1 sequence (P14902 whole entry): as above

| IC50 (human IDO1) [nM] | IC50 [1] [nM] | SMILES |
| --- | --- | --- |
| 3 | < 50 | CC[C@@H](CC(=O)O)c1ccc([C@H]2CC[C@@H](c3ccccc3)CC2)c(NC(=O)Nc2ccc(C)cc2)c1 (single isomer, unassigned) [Example 1-4, 3-(4-(4-phenylcyclohexyl)-3-(3-(p-tolyl)ureido)phenyl)pentanoic acid] |
| 1 | < 50 | CC[C@@H](CC(=O)O)c1ccc([C@H]2CC[C@@H](c3ccccc3)CC2)c(NC(=O)Nc2ccc(C)cc2)c1 (single isomer, unassigned) [Example 2-3, 3-(4-(4-phenylcyclohexyl)-3-(3-(p-tolyl)ureido)phenyl)pentanoic acid] |
